Where two headings read alike, the source gives them in different places.
Biological target: T1, Human BCL-XL protein (N-terminal HiBiT tagged BCL-XL in HT1080 cells) (Homo sapiens, UniProt Q07817)
T1 construct: expressed in transfected cells; host or cells: HT-1080 (ATCC CCL-121), stably transduced with lentivirus pLV-UBC-N-HiBiT-BCL-XL-PGK-puro and selected with puromycin
Experiment: HiBiT based degradation assay
Format: cell-based
Conditions: HT1080 cells expressing HiBiT-BCL-XL; for Ymin (24 h) / Ymin (6 h): BCL-XL degradation normalized with DMSO control; for DC50: BCL-XL degradation
Procedure, shortened: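 HT1080 cells stably transduced by lentivirus with N-terminally HiBiT-tagged human BCL-XL and kept under 1 μg/mL puromycin selection were seeded at three thousand cells per well in 40 μL RPMI 1640 into 384-well plates pre-spotted with compounds across a concentration range. Luminescence was read on a PHERAstar FSX, normalized to DMSO, and fitted with a four-parameter logistic model.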

T1 sequence (Q07817 whole entry): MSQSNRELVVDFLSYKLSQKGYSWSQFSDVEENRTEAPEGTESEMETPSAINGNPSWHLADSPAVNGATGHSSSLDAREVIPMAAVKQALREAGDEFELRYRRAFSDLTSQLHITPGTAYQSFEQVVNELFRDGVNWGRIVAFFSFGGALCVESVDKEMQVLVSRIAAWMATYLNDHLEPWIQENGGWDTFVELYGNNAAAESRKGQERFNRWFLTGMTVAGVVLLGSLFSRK

| Compound | Ymin (24 h) | DC50 (24 h, read-out: EC50 (24 h)) | Ymin (6 h) | DC50 (6 h, read-out: EC50 (6 h)) |
| --- | --- | --- | --- | --- |
| Cc1c(O[C@H]2CC[C@H](CCN3CCN(c4ccc5c(C6CCC(=O)NC6=O)nn(C)c5c4)CC3)CC2)cccc1-c1ccc(N2CCc3cccc(C(=O)Nc4nc5ccccc5s4)c3C2)nc1C(=O)O (stereo partly drawn) [Compound 211a, 6-(8-(benzo[d]thiazol-2-ylcarbamoyl)-3,4-dihydroisoquinolin-2(1H)-yl)-3-(3-(((1r,4r)-4-(2-(4-(3-(2,6-dioxopiperidin-3-yl)-1-methyl-1H-indazol-6-yl)piperazin-1-yl)ethyl)cyclohexyl)oxy)-2-methylphenyl)picolinic acid] | B (50% ≤ Ymin < 70%) | < 100 nM | – | – |
| Cc1c(O[C@H]2CC[C@H](CC(F)(F)CN3CCN(c4ccc5c(C6CCC(=O)NC6=O)nn(C)c5c4)CC3)CC2)cccc1-c1ccc(N2CCc3cccc(C(=O)Nc4nc5ccccc5s4)c3C2)nc1C(=O)O (stereo partly drawn) [Compound 212a, 6-(8-(benzo[d]thiazol-2-ylcarbamoyl)-3,4-dihydroisoquinolin-2(1H)-yl)-3-(3-(((1r,4r)-4-(3-(4-(3-(2,6-dioxopiperidin-3-yl)-1-methyl-1H-indazol-6-yl)piperazin-1-yl)-2,2-difluoropropyl)cyclohexyl)oxy)-2-methylphenyl)picolinic acid] | B (50% ≤ Ymin < 70%) | < 100 nM | – | – |
| Cc1c(OCCCCC2CCN(CC(=O)Nc3cccc4c(C5CCC(=O)NC5=O)nn(C)c34)CC2)cccc1-c1ccc(N2CCc3cccc(C(=O)Nc4nc5ccccc5s4)c3C2)nc1C(=O)O (stereo not drawn) [Compound 213, 6-(8-(benzo[d]thiazol-2-ylcarbamoyl)-3,4-dihydroisoquinolin-2(1H)-yl)-3-(3-(4-(1-(2-((3-(2,6-dioxopiperidin-3-yl)-1-methyl-1H-indazol-7-yl)amino)-2-oxoethyl)piperidin-4-yl)butoxy)-2-methylphenyl)picolinic acid] | A (Ymin < 50%) | 100 to 1000 nM | C (Ymin ≥ 70%) | 1000 to 10000 nM |
| Cc1c(O[C@H]2CC[C@H](CCCC(=O)N3CCN(c4cccc5c(C6CCC(=O)NC6=O)nn(C)c45)CC3)CC2)cccc1-c1ccc(N2CCc3cccc(C(=O)Nc4nc5ccccc5s4)c3C2)nc1C(=O)O (stereo partly drawn) [Compound 214a, 6-(8-(benzo[d]thiazol-2-ylcarbamoyl)-3,4-dihydroisoquinolin-2(1H)-yl)-3-(3-(((1s,4r)-4-(4-(4-(3-(2,6-dioxopiperidin-3-yl)-1-methyl-1H-indazol-7-yl)piperazin-1-yl)-4-oxobutyl)cyclohexyl)oxy)-2-methylphenyl)picolinic acid] | B (50% ≤ Ymin < 70%) | < 100 nM | – | – |
| Cc1c(O[C@H]2CC[C@H](CCN3CCN(c4cccc5c(C6CCC(=O)NC6=O)nn(C)c45)CC3)CC2)cccc1-c1ccc(N2CCc3cccc(C(=O)Nc4nc5ccccc5s4)c3C2)nc1C(=O)O (stereo partly drawn) [Compound 215a, 6-(8-(benzo[d]thiazol-2-ylcarbamoyl)-3,4-dihydroisoquinolin-2(1H)-yl)-3-(3-(((1r,4r)-4-(2-(4-(3-(2,6-dioxopiperidin-3-yl)-1-methyl-1H-indazol-7-yl)piperazin-1-yl)ethyl)cyclohexyl)oxy)-2-methylphenyl)picolinic acid] | C (Ymin ≥ 70%) | < 100 nM | – | – |
| Cc1c(OCCCC2CCN([C@@H](C)C(=O)Nc3cccc4c(C5CCC(=O)NC5=O)nn(C)c34)CC2)cccc1-c1ccc(N2CCc3cccc(C(=O)Nc4nc5ccccc5s4)c3C2)nc1C(=O)O (stereo partly drawn) [Compound 216a, 6-(8-(benzo[d]thiazol-2-ylcarbamoyl)-3,4-dihydroisoquinolin-2(1H)-yl)-3-(3-(3-(1-((2S)-1-((3-(2,6-dioxopiperidin-3-yl)-1-methyl-1H-indazol-7-yl)amino)-1-oxopropan-2-yl)piperidin-4-yl)propoxy)-2-methylphenyl)picolinic acid] | B (50% ≤ Ymin < 70%) | < 100 nM | – | – |
| Cc1c(OCCCC2CCN([C@H](C)C(=O)Nc3cccc4c(C5CCC(=O)NC5=O)nn(C)c34)CC2)cccc1-c1ccc(N2CCc3cccc(C(=O)Nc4nc5ccccc5s4)c3C2)nc1C(=O)O (stereo partly drawn) [Compound 216b, 6-(8-(benzo[d]thiazol-2-ylcarbamoyl)-3,4-dihydroisoquinolin-2(1H)-yl)-3-(3-(3-(1-((2R)-1-((3-(2,6-dioxopiperidin-3-yl)-1-methyl-1H-indazol-7-yl)amino)-1-oxopropan-2-yl)piperidin-4-yl)propoxy)-2-methylphenyl)picolinic acid] | B (50% ≤ Ymin < 70%) | < 100 nM | – | – |
| Cc1c(OCCCCCCCCN2CCN(c3cccc4c(C5CCC(=O)NC5=O)nn(C)c34)CC2)cccc1-c1ccc(N2CCc3cccc(C(=O)Nc4nc5ccccc5s4)c3C2)nc1C(=O)O (stereo not drawn) [Compound 217, 6-[8-(1,3-benzothiazol-2-ylcarbamoyl)-3,4-dihydro-1H-isoquinolin-2-yl]-3-[3-[8-[4-[3-(2,6-dioxo-3-piperidyl)-1-methyl-indazol-7-yl]piperazin-1-yl]octoxy]-2-methyl-phenyl]pyridine-2-carboxylic acid] | B (50% ≤ Ymin < 70%) | < 100 nM | B (50% ≤ Ymin < 70%) | < 100 nM |
| Cc1c(OCCCN2CCN(CC(=O)Nc3cccc4c(C5CCC(=O)NC5=O)nn(C)c34)[C@@H](C(F)(F)F)C2)cccc1-c1ccc(N2CCc3cccc(C(=O)Nc4nc5ccccc5s4)c3C2)nc1C(=O)O (stereo partly drawn) [Compound 218a, 6-(8-(benzo[d]thiazol-2-ylcarbamoyl)-3,4-dihydroisoquinolin-2(1H)-yl)-3-(3-(3-((3R)-4-(2-((3-(2,6-dioxopiperidin-3-yl)-1-methyl-1H-indazol-7-yl)amino)-2-oxoethyl)-3-(trifluoromethyl)piperazin-1-yl)propoxy)-2-methylphenyl)picolinic acid] | B (50% ≤ Ymin < 70%) | 100 to 1000 nM | C (Ymin ≥ 70%) | 1000 to 10000 nM |
| Cc1c(OCCCN2CCN(CC(=O)Nc3cccc4c(C5CCC(=O)NC5=O)nn(C)c34)[C@H](C(F)(F)F)C2)cccc1-c1ccc(N2CCc3cccc(C(=O)Nc4nc5ccccc5s4)c3C2)nc1C(=O)O (stereo partly drawn) [Compound 218b, 6-(8-(benzo[d]thiazol-2-ylcarbamoyl)-3,4-dihydroisoquinolin-2(1H)-yl)-3-(3-(3-((3S)-4-(2-((3-(2,6-dioxopiperidin-3-yl)-1-methyl-1H-indazol-7-yl)amino)-2-oxoethyl)-3-(trifluoromethyl)piperazin-1-yl)propoxy)-2-methylphenyl)picolinic acid] | C (Ymin ≥ 70%) | 100 to 1000 nM | C (Ymin ≥ 70%) | 1000 to 10000 nM |
| Cc1c(OCC[C@@H]2CCN(CC(=O)Nc3ccc4c(C5CCC(=O)NC5=O)nn(C)c4c3)C2)cccc1-c1ccc(N2CCc3cccc(C(=O)Nc4nc5ccccc5s4)c3C2)nc1C(=O)O (stereo partly drawn) [Compound 219a, 6-[8-(1,3-benzothiazol-2-ylcarbamoyl)-3,4-dihydro-1H-isoquinolin-2-yl]-3-[3-[2-[(3S)-1-[2-[[3-(2,6-dioxo-3-piperidyl)-1-methyl-indazol-6-yl]amino]-2-oxo-ethyl]pyrrolidin-3-yl]ethoxy]-2-methyl-phenyl]pyridine-2-carboxylic acid] | A (Ymin < 50%) | < 100 nM | – | – |
| Cc1c(OCC[C@H]2CCN(CC(=O)Nc3ccc4c(C5CCC(=O)NC5=O)nn(C)c4c3)C2)cccc1-c1ccc(N2CCc3cccc(C(=O)Nc4nc5ccccc5s4)c3C2)nc1C(=O)O (stereo partly drawn) [Compound 219b, 6-[8-(1,3-benzothiazol-2-ylcarbamoyl)-3,4-dihydro-1H-isoquinolin-2-yl]-3-[3-[2-[(3R)-1-[2-[[3-(2,6-dioxo-3-piperidyl)-1-methyl-indazol-6-yl]amino]-2-oxo-ethyl]pyrrolidin-3-yl]ethoxy]-2-methyl-phenyl]pyridine-2-carboxylic acid] | A (Ymin < 50%) | < 100 nM | B (50% ≤ Ymin < 70%) | < 100 nM |
| Cc1c(OCCCC2CCN(CCN3CCN(c4ccc5c(C6CCC(=O)NC6=O)nn(C)c5c4)CC3)CC2)cccc1-c1ccc(N2CCc3cccc(C(=O)Nc4nc5ccccc5s4)c3C2)nc1C(=O)O (stereo not drawn) [Compound 220, 6-[8-(1,3-benzothiazol-2-ylcarbamoyl)-3,4-dihydro-1H-isoquinolin-2-yl]-3-[3-[3-[1-[2-[4-[3-(2,6-dioxo-3-piperidyl)-1-methyl-indazol-6-yl]piperazin-1-yl]ethyl]-4-piperidyl]propoxy]-2-methyl-phenyl]pyridine-2-carboxylic acid] | A (Ymin < 50%) | < 100 nM | – | – |
| Cc1c(OCCCN2CCN(CC3CCN(c4cccc5c(C6CCC(=O)NC6=O)nn(C)c45)CC3)CC2)cccc1-c1ccc(N2CCc3cccc(C(=O)Nc4nc5ccccc5s4)c3C2)nc1C(=O)O (stereo not drawn) [Compound 221, 6-(8-(benzo[d]thiazol-2-ylcarbamoyl)-3,4-dihydroisoquinolin-2(1H)-yl)-3-(3-(3-(4-((1-(3-(2,6-dioxopiperidin-3-yl)-1-methyl-1H-indazol-7-yl)piperidin-4-yl)methyl)piperazin-1-yl)propoxy)-2-methylphenyl)picolinic acid] | A (Ymin < 50%) | < 100 nM | – | – |
| Cc1c(OCCCCCCN2CCN(c3ccc4c(C5CCC(=O)NC5=O)nn(C)c4c3)CC2)cccc1-c1ccc(N2CCc3cccc(C(=O)Nc4nc5ccccc5s4)c3C2)nc1C(=O)O (stereo not drawn) [Compound 222, 6-(8-(benzo[d]thiazol-2-ylcarbamoyl)-3,4-dihydroisoquinolin-2(1H)-yl)-3-(3-((6-(4-(3-(2,6-dioxopiperidin-3-yl)-1-methyl-1H-indazol-6-yl)piperazin-1-yl)hexyl)oxy)-2-methylphenyl)picolinic acid] | A (Ymin < 50%) | < 100 nM | B (50% ≤ Ymin < 70%) | < 100 nM |

From patent US20240238423A9, “TETRAHYDROISOQUINOLINE HETEROBIFUNCTIONAL BCL-XL DEGRADERS” (Treeline Biosciences, Inc., priority 2022, published 2024)
